Measured values taken from US6706739B2, “Imidazolidinone compounds” (National Health Research Institute, priority 2001, dated 2004).
Where two headings read alike, the source gives them in different places.

Tests used:
Format in all cases: cell-based
enterovirus 71 = assay: Plaque reduction assay, enterovirus 71
coxsackievirus A24 = assay: Plaque reduction assay, coxsackievirus A24
coxsackievirus A9 = assay: Plaque reduction assay, coxsackievirus A9
[1] = plaque reduction assay, vero cells, 35° C., 96 hours

O=C1N(CCCCCCOc2ccc(C(F)(F)F)cc2)CCN1c1ccncc1 [Compound 1, 1-(4-pyridyl)-3-(6-[4-(trifluoromethyl)phenoxy]hexyl)-2-imidazolidinone]
showed antiviral activity: antiviral activity against enteroviruses, in particular enterovirus 71 (enterovirus 71; [1]) | antiviral activity against enteroviruses, in particular coxsackievirus A24 (coxsackievirus A24; [1]) | antiviral activity against enteroviruses, in particular coxsackievirus A9 (coxsackievirus A9; [1])

O=C1N(CCCCCCCOc2ccc(Cl)cc2)CCN1c1ccncc1 [Compound 2, 1-[7-(4-chlorophenoxy)heptyl]-3-(4-pyridyl)-2-imidazolidinone]
showed antiviral activity: antiviral activity against enteroviruses, in particular enterovirus 71 (enterovirus 71; [1]) | antiviral activity against enteroviruses, in particular coxsackievirus A24 (coxsackievirus A24; [1]) | antiviral activity against enteroviruses, in particular coxsackievirus A9 (coxsackievirus A9; [1])

O=C1N(CCCCCCOc2ccc(Br)cc2)CCN1c1ccncc1 [Compound 17, 1-[6-(4-bromophenoxy)hexyl]-3-(4-pyridyl)-2-imidazolidinone]
showed antiviral activity: antiviral activity against enteroviruses, in particular enterovirus 71 (enterovirus 71; [1]) | antiviral activity against enteroviruses, in particular coxsackievirus A24 (coxsackievirus A24; [1]) | antiviral activity against enteroviruses, in particular coxsackievirus A9 (coxsackievirus A9; [1])

CC1CN(CCCCCCOc2ccc(Cl)cc2)C(=O)N1c1ccncc1 (stereo not drawn) [Compound 21, 1-[6-(4-chlorophenoxy)hexyl]-4-methyl-3-(4-pyridyl)-2-imidazolidinone]
showed antiviral activity: antiviral activity against enteroviruses, in particular enterovirus 71 (enterovirus 71; [1]) | antiviral activity against enteroviruses, in particular coxsackievirus A24 (coxsackievirus A24; [1]) | antiviral activity against enteroviruses, in particular coxsackievirus A9 (coxsackievirus A9; [1])

O=C1N(CCCCCCOc2ccc(Cl)cc2)CCN1c1ccncc1 [Compound 24, 1-[6-(4-chlorophenoxy)hexyl]-3-(4-pyridyl)-2-imidazolidinone]
showed antiviral activity: antiviral activity against enteroviruses, in particular enterovirus 71 (enterovirus 71; [1]) | antiviral activity against enteroviruses, in particular coxsackievirus A24 (coxsackievirus A24; [1]) | antiviral activity against enteroviruses, in particular coxsackievirus A9 (coxsackievirus A9; [1])

O=C1N(CCCCCOc2ccc(Cl)cc2)CCN1c1ccncc1 [Compound 28, 1-[5-(4-chlorophenoxy)pentyl]-3-(4-pyridyl)-2-imidazolidinone]
showed antiviral activity: antiviral activity against enteroviruses, in particular enterovirus 71 (enterovirus 71; [1]) | antiviral activity against enteroviruses, in particular coxsackievirus A24 (coxsackievirus A24; [1]) | antiviral activity against enteroviruses, in particular coxsackievirus A9 (coxsackievirus A9; [1])

O=C1N(CCCCCCOc2ccc(Br)cc2)CCN1c1cccnc1 [Compound 33, 1-[6-(4-bromophenoxy)hexyl]-3-(3-pyridyl)-2-imidazolidinone]
showed antiviral activity: antiviral activity against enteroviruses, in particular enterovirus 71 (enterovirus 71; [1]) | antiviral activity against enteroviruses, in particular coxsackievirus A24 (coxsackievirus A24; [1]) | antiviral activity against enteroviruses, in particular coxsackievirus A9 (coxsackievirus A9; [1])

O=C1N(CCCCOCCOc2ccc(Br)cc2)CCN1c1ccncc1 [Compound 34, 1-4-[2-(4-bromophenoxy)ethoxy]butyl-3-(4-pyridyl)-2-imidazolidinone]
showed antiviral activity: antiviral activity against enteroviruses, in particular enterovirus 71 (enterovirus 71; [1]) | antiviral activity against enteroviruses, in particular coxsackievirus A24 (coxsackievirus A24; [1]) | antiviral activity against enteroviruses, in particular coxsackievirus A9 (coxsackievirus A9; [1])

O=C1N(CCCCCCCOc2ccc(Cl)cc2)CCN1c1cccnc1 [Compound 39, 1-[7-(4-chlorophenoxy)heptyl]-3-(3-pyridyl)-2-imidazolidinone]
showed antiviral activity: antiviral activity against enteroviruses, in particular enterovirus 71 (enterovirus 71; [1]) | antiviral activity against enteroviruses, in particular coxsackievirus A24 (coxsackievirus A24; [1]) | antiviral activity against enteroviruses, in particular coxsackievirus A9 (coxsackievirus A9; [1])

O=C1N(CCCCCCOc2ccc(C(F)(F)F)cc2)CCN1c1cccnc1 [Compound 42, 1-(3-pyridyl)-3-(6-[4-(trifluoromethyl)phenoxy]hexyl)-2-imidazolidinone]
showed antiviral activity: antiviral activity against enteroviruses, in particular enterovirus 71 (enterovirus 71; [1]) | antiviral activity against enteroviruses, in particular coxsackievirus A24 (coxsackievirus A24; [1]) | antiviral activity against enteroviruses, in particular coxsackievirus A9 (coxsackievirus A9; [1])

O=C1N(CCCCCOCCOc2ccc(Br)cc2)CCN1c1ccncc1 [Compound 47, 1-(5-[2-(4-bromophenoxy)ethoxy]pentyl)-3-(4-pyridyl)-2-imidazolidinone]
showed antiviral activity: antiviral activity against enteroviruses, in particular enterovirus 71 (enterovirus 71; [1]) | antiviral activity against enteroviruses, in particular coxsackievirus A24 (coxsackievirus A24; [1]) | antiviral activity against enteroviruses, in particular coxsackievirus A9 (coxsackievirus A9; [1])

O=C1N(CCCCCCCOc2ccc(Br)cc2)CCN1c1ccncc1 [Compound 50, 1-[7-(4-bromophenoxy)heptyl]-3-(4-pyridyl)-2-imidazolidinone]
showed antiviral activity: antiviral activity against enteroviruses, in particular enterovirus 71 (enterovirus 71; [1]) | antiviral activity against enteroviruses, in particular coxsackievirus A24 (coxsackievirus A24; [1]) | antiviral activity against enteroviruses, in particular coxsackievirus A9 (coxsackievirus A9; [1])

O=C1N(CCCCCOc2ccc(Br)cc2)CCN1c1ccncc1 [Compound 52, 1-[5-(4-bromophenoxy)pentyl]-3-(4-pyridyl)-2-imidazolidinone]
showed antiviral activity: antiviral activity against enteroviruses, in particular enterovirus 71 (enterovirus 71; [1]) | antiviral activity against enteroviruses, in particular coxsackievirus A24 (coxsackievirus A24; [1]) | antiviral activity against enteroviruses, in particular coxsackievirus A9 (coxsackievirus A9; [1])

O=C1N(CCCCCCOc2ccc(I)cc2)CCN1c1ccncc1 [Compound 61, 1-[6-(4-iodophenoxy)hexyl]-3-(4-pyridyl)-2-imidazolidinone]
showed antiviral activity: antiviral activity against enteroviruses, in particular enterovirus 71 (enterovirus 71; [1]) | antiviral activity against enteroviruses, in particular coxsackievirus A24 (coxsackievirus A24; [1]) | antiviral activity against enteroviruses, in particular coxsackievirus A9 (coxsackievirus A9; [1])

O=C1N(CCCCCOc2ccc(-c3ccc(Cl)cc3)cc2)CCN1c1ccncc1 [Compound 73, 1-[6-(4-(4′-chloro)biphenyl-4-yloxy)pentyl]-3-pyridin-4-yl-imidazolidin-2-one]
showed antiviral activity: antiviral activity against enteroviruses, in particular enterovirus 71 (enterovirus 71) | antiviral activity against enteroviruses, in particular coxsackievirus A24 (coxsackievirus A24) | antiviral activity against enteroviruses, in particular coxsackievirus A9 (coxsackievirus A9)

COc1ccc(-c2ccc(OCCCCCN3CCN(c4ccncc4)C3=O)cc2)cc1 [Compound 74, 1-[5-(4′-methoxy-biphenyl-4-yloxy)pentyl]-3-pyridin-4-yl-imidazolidin-2-one]
showed antiviral activity: antiviral activity against enteroviruses, in particular enterovirus 71 (enterovirus 71; [1]) | antiviral activity against enteroviruses, in particular coxsackievirus A24 (coxsackievirus A24; [1]) | antiviral activity against enteroviruses, in particular coxsackievirus A9 (coxsackievirus A9; [1])

O=C1N(CCCCCOc2ccc(-c3ccc([N+](=O)[O-])cc3)cc2)CCN1c1ccncc1 [Compound 76, 1-[5-(4′-nitro-biphenyl-4-yloxy)pentyl]-3-pyridin-4-yl-imidazolidin-2-one]
showed antiviral activity: antiviral activity against enteroviruses, in particular enterovirus 71 (enterovirus 71; [1]) | antiviral activity against enteroviruses, in particular coxsackievirus A24 (coxsackievirus A24; [1]) | antiviral activity against enteroviruses, in particular coxsackievirus A9 (coxsackievirus A9; [1])
